What was measured:
Test in all cases: relative viability (nuclei count vs DMSO), 5 days (fraction); higher = more cells survive
[1] = compound: CC1=CN2C(=O)C=C(N=C2C(=C1)C(C)NC3=CC=CC=C3)N4CCOCC4 [TGX 221] + N=C(N)NC(=N)NCCc1ccccc1 [Phenformin] (partner 250 µM)
How it was run: (§1)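 Relative viability was taken as the ratio of nuclei in treated wells to nuclei in vehicle wells. Lung cancer cell lines in 1536-well plates received compounds by pin tool one day after seeding, either one drug alone or a fixed anchor-drug dose plus five library-drug doses (not always all listed) in √10 steps. Nuclei were counted on 4× images after 5 days of treatment, and values are medians of duplicate plates.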

[2] = compound: C1=CC=C(C(=C1)C2=CC=C(C=C2)C3=CSC4=C3C(=C(C(=O)N4)C#N)O)O + CC(=O)c1c(C)c2cnc(Nc3ccc(N4CCNCC4)cn3)nc2n(C2CCCC2)c1=O [Palbociclib] (partner 0.5 µM)
How it was run: as §1

[3] = compound: O=C(CCCCCCNC(=O)c1cnc(N(c2ccccc2)c2ccccc2)nc1)NO [Ricolinostat] + N=C(N)NC(=N)NCCc1ccccc1 [Phenformin] (partner 250 µM)
How it was run: as §1

[4] = compound: CC1=CN2C(=O)C=C(N=C2C(=C1)C(C)NC3=CC=CC=C3)N4CCOCC4 [TGX 221] + O=C(c1cc(Cc2n[nH]c(=O)c3ccccc23)ccc1F)N1CCN(C(=O)C2CC2)CC1 [Olaparib] (partner 8 µM)
How it was run: as §1

Cell Line | relative viability ([1]; first compound 0.08 µM) | relative viability ([1]; first compound 0.253 µM) | relative viability ([1]; first compound 0.8 µM) | relative viability ([1]; first compound 2.53 µM) | relative viability ([1]; first compound 8 µM) | relative viability ([2]; first compound 0.08 µM) | relative viability ([2]; first compound 0.8 µM) | relative viability ([2]; first compound 2.53 µM) | relative viability ([2]; first compound 8 µM) | relative viability ([3]; first compound 0.08 µM) | relative viability ([3]; first compound 0.253 µM) | relative viability ([3]; first compound 0.8 µM) | relative viability ([3]; first compound 2.53 µM) | relative viability ([4]; first compound 0.08 µM) | relative viability ([4]; first compound 0.253 µM) | relative viability ([4]; first compound 0.8 µM) | relative viability ([4]; first compound 2.53 µM) | relative viability ([4]; first compound 8 µM) | relative viability ([2]; first compound 0.253 µM)
NCI-H2405 | 0.386 | 0.405 | 0.379 | 0.44 | 0.338 | 0.476 | 0.516 | 0.513 | 0.531 | 0.356 | 0.44 | 0.416 | 0.358 | 0.803 | 0.886 | 0.858 | 0.801 | 0.75 | 
NCI-H3122 | 0.366 | 0.386 | 0.396 | 0.363 | 0.366 | 0.203 | 0.186 | 0.21 | 0.231 |  | 0.378 | 0.369 | 0.318 | 0.596 | 0.625 | 0.596 | 0.562 | 0.643 | 0.214
PC-3 [JPC-3] | 0.463 | 0.459 | 0.469 | 0.47 | 0.477 | 0.496 | 0.535 | 0.601 | 0.577 |  | 0.472 | 0.488 | 0.475 | 1.12 | 1.02 | 1.25 | 1.06 | 1.07 | 0.599
PC-14 | 0.502 | 0.543 | 0.556 | 0.638 | 0.667 | 0.496 | 0.537 | 0.574 | 0.34 | 0.364 | 0.532 | 0.477 | 0.37 | 0.249 | 0.265 | 0.262 | 0.222 | 0.252 | 0.56
RERF-LC-KJ | 0.439 | 0.434 | 0.398 | 0.377 | 0.326 | 1.01 | 1.11 | 1.29 | 1.04 | 0.452 | 0.372 | 0.406 | 0.374 | 0.834 | 0.756 | 0.996 | 0.844 | 0.874 | 1.18

— the supplement of paper PMC10307832
